Here are results for 7 compounds from PMC6199744, “Development of Chemical Proteomics for the Folateome and Analysis of the Kinetoplastid Folateome” (ACS Infectious Diseases, 2018).

Common to all, as to type: binding
The target of experiment [1] is T1, HeLa cell extract proteins (Homo sapiens, UniProt O75323).
T1 construct: endogenous in cells; host or cells: HeLa cell extract
T1 sequence (O75323 24-286): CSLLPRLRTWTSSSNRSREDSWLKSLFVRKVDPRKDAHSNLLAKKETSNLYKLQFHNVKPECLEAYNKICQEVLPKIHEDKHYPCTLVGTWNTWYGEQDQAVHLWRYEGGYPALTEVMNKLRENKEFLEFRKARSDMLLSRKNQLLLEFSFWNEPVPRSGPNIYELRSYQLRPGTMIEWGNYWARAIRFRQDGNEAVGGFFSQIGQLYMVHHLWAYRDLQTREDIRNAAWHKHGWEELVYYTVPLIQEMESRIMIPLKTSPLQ
As to conditions: protein GBAS; HeLa.

Experiment [2] concerns the target T2, HeLa cell extract proteins (Homo sapiens, UniProt Q9NNW5).
T2 construct: endogenous in cells; host or cells: HeLa cell extract
T2 sequence (Q9NNW5 1-1121): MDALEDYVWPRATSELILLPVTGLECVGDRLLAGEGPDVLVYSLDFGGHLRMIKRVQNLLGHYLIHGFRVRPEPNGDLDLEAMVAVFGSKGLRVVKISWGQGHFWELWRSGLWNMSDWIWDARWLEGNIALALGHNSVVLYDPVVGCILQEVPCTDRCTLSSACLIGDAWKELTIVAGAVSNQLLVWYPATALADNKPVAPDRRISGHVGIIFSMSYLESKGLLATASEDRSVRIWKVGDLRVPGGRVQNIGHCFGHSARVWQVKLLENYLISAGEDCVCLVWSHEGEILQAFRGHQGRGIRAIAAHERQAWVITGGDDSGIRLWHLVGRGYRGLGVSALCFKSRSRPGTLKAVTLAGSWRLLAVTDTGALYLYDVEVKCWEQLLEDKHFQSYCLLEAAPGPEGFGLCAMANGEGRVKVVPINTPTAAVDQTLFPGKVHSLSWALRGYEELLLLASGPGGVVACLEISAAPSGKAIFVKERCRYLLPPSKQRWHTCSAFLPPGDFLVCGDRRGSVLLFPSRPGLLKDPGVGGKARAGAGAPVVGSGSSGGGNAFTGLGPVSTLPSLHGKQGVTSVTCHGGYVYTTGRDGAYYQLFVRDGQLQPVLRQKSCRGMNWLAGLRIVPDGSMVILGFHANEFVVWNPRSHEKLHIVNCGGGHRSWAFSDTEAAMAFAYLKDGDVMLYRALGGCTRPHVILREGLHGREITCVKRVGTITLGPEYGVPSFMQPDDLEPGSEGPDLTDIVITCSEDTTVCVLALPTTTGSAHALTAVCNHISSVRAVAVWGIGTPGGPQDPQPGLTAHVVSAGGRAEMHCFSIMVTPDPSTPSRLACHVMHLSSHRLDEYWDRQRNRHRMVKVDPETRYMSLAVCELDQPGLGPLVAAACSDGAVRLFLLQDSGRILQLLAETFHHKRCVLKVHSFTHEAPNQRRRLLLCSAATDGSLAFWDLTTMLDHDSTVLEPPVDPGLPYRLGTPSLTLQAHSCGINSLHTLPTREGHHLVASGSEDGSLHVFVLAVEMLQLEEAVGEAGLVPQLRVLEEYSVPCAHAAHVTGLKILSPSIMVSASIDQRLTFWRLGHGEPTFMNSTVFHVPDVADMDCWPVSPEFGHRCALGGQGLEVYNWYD

The target of experiment [3] is T3, HeLa cell extract proteins (Homo sapiens, UniProt Q9BW92).
T3 construct: endogenous in cells; host or cells: HeLa cell extract
T3 sequence (Q9BW92 1-718): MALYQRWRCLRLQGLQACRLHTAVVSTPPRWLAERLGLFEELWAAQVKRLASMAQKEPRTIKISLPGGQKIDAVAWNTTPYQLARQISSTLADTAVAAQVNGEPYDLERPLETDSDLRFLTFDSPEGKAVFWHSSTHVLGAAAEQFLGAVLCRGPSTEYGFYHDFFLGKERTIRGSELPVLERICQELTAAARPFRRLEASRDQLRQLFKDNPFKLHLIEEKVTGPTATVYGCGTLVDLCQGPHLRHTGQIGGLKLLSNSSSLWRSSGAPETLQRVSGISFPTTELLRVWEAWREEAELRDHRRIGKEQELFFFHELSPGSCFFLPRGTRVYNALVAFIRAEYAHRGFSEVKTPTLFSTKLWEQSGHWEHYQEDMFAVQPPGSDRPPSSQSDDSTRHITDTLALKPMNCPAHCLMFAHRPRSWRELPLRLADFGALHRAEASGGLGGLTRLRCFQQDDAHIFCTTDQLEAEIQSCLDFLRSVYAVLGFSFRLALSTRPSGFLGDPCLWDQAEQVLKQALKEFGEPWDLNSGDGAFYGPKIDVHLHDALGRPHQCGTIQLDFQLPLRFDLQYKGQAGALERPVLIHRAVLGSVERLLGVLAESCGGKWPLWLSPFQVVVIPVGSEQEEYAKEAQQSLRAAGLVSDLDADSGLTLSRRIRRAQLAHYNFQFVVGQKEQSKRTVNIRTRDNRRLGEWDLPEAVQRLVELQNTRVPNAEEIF

Experiment [4] deals with T4, HeLa cell extract proteins (Homo sapiens, UniProt O00462).
T4 construct: endogenous in cells; host or cells: HeLa cell extract
T4 sequence (O00462 18-879): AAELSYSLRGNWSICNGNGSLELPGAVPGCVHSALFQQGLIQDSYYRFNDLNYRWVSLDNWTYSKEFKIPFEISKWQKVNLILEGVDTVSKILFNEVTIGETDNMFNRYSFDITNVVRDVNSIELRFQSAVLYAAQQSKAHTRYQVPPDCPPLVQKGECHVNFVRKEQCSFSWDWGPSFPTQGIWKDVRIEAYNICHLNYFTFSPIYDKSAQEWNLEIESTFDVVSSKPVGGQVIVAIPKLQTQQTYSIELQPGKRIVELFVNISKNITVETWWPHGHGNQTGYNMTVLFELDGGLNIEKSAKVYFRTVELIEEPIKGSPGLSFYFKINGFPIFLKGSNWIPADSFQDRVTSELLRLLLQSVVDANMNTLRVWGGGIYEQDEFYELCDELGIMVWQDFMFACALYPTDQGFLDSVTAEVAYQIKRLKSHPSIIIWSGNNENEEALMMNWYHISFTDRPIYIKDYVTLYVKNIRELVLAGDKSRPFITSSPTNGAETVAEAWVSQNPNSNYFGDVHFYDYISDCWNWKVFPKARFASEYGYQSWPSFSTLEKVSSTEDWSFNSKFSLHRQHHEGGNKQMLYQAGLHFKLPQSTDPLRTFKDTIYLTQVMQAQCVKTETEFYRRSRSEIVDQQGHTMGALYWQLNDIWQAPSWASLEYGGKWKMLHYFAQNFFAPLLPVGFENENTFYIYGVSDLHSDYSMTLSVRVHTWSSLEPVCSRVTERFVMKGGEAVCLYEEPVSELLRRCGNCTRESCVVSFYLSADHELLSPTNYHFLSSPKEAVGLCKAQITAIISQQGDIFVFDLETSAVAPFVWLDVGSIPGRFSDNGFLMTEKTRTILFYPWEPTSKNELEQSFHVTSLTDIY

[5] abbreviates: HeLa, protein MANBA (BETA-MANNOSIDASE PRECURSOR).

Molecules are shown by their SMILES. Where two headings read alike, the source gives them in different places.

As to `CCCCCCOc1cccc(Cc2cnc(N)nc2N)c1` [compound 2], in experiment [1], the “fold changes relative to vehicle control” value turned out to be 1.29.

For the compound `NCCOCCOCC(=O)Nc1nc2ncc(CNc3ccc(C(=O)NC(CCC(=O)O)C(=O)O)cc3)nc2c(=O)[nH]1` (stereo not drawn) [compound 6], the “fold changes relative to vehicle control” value is reported as 1.19 in experiment [2] (HeLa, protein WDR6); 1.13 in experiment [3] (HeLa, protein TARS2); 0.71 in experiment [4] (setting [5]).

Take `CCCCCCOc1ccc(Cc2cnc(N)nc2N)cc1` [compound 1]: the “fold changes relative to vehicle control” value in experiment [1] is listed as 1.26.

Turning to `Nc1nc2c(c(=O)[nH]1)N(C=O)C(CNc1ccc(C(=O)N[C@@H](CCC(=O)O)C(=O)O)cc1)CN2` (stereo partly drawn) [LEU, leucovorin], the “fold changes relative to vehicle control” value in experiment [2] (HeLa, protein WDR6) is recorded as 0.96; in experiment [3] (HeLa, protein TARS2) it was 0.91; in experiment [4] (HeLa, protein MANBA (BETA-M[…])) it was 1.01.

On to `NCCCNc1ccc(C(=O)NC(CCC(=O)O)C(=O)O)cc1` (stereo not drawn) [compound 7], for which the “fold changes relative to vehicle control” value in experiment [2] (HeLa, protein WDR6) is given as 1.06; in experiment [3] (HeLa, protein TARS2), 1; in experiment [4] (setting [5]) it was 0.91.

On to `Nc1nc2[nH]cc(CCc3ccc(C(=O)N[C@@H](CCC(=O)O)C(=O)O)cc3)c2c(=O)[nH]1` [PTX, pemetrexed], for which the “fold changes relative to vehicle control” value in experiment [2] turned out to be 1.1; in experiment [3], 0.87; in experiment [4], 0.71.

With `Nc1nc2cccc(-c3ccccc3)c2n1Cc1ccc(Cl)c(Cl)c1` [compound 3], in experiment [1], the “fold changes relative to vehicle control” value came out at 1.01.
